Assay results published in paper PMC10535864, “Novel Aminopyrimidine-2,4-diones, 2-Thiopyrimidine-4-ones, and 6-Arylpteridines as Dual-Target Inhibitors of BRD4/PLK1: Design, Synthesis, Cytotoxicity, and Computational Studies” (Pharmaceuticals, 2023).

What was measured:
Format in all cases: cell-based
[1] = system: HT-29 colorectal adenocarcinoma cells; assay: MTT cytotoxicity assay, HT-29; settings: MTT; for IC50: mean of three independent experiments ± SD, read-out: IC50 Value HT-29
Method: (§1) All newly synthetic compounds were tested for cytotoxicity using a six-dose MTT colorimetric assay on three cancer cell lines; namely, breast cancer cells (MDA-MB-231), colorectal adenocarcinoma cells (HT-29) and renal cancer cells (U-937). […] However, renal cancer cells (U-937) were discovered to be the least sensitive.
(§2) Using a six-dose MTT colorimetric assay, all new synthetic compounds were tested for cytotoxicity against three cancer cell lines: MDA-MB-231 breast cancer cells, HT-29 colorectal adenocarcinoma cells, and U-937 renal cancer cells. […] These cell lines were supplied by ATCC (American Type Culture Collection) via the Holding company for biological products and vaccines (VACSERA, Cairo, Egypt). The reference control used was Methotrexate. Detailed descriptions of the MTT colorimetric assay’s protocol can be found in the Supplementary file.
(§3) 1.1.In-vitro cytotoxicity screening
(§4) Using a six-dose MTT colorimetric assay, allnew synthetic compounds were tested for cytotoxicity against three cancer cell lines: MDA-MB-231 breast cancer cells,HT-29 colorectal adenocarcinoma cells, and U-937 renal […]
(§5) The cell lines were supplied by ATCC (American Type Culture Collection). The reference control used was Methotrexate. The cytotoxic activities of the examined compounds were quantified by inoculating a 96-well tissue culture plate with 1 X 10^5 cells / mL (100 uL/well) and incubating it at 37°C for 24 hours to develop a complete monolayer sheet. After forming a confluent sheet of cells, the growth medium was decanted from 96-well microtiter plates, and the cell monolayer was washed twice with wash media. Two-fold dilutions of tested samples were made in RPMI medium with 2% serum (maintenance medium), and 0.1 mL of each dilution was tested in different wells, with three wells serving as controls and receiving only maintenance medium. Following that, the plate was incubated at 37°C and examined. Cells were investigated for any physical signs of toxicity, such as partial or complete monolayer loss, rounding, shrinkage, or cell granulation. MTT solution was prepared (5mg/ml in PBS) (BIO BASIC CANADA INC), and 20 uL MTT solution was added to each well. After 5 minutes on a shaking table at150 rpm to thoroughly mix the MTT into the media, it was incubated (37°C, 5% CO2) for 4 hours to allow the MTT to be metabolized. Formazan (MTT metabolic product) was resuspended in 200 uL DMSO and shaken at 150 rpm for 5 minutes to thoroughly mix the formazan into the solvent. The optical density was measured at 560 nm, and the background was subtracted at 620 nm. Finally, the IC50 of the test compound in comparison to the reference was calculated using the GraphPad Prism software. […]

[2] = MTT cytotoxicity assay, U-937; settings: Homo sapiens, U-937, U937, MTT;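 note: Six-dose MTT colorimetric assay on cell monolayers, formazan absorbance read at 560 nm with 620 nm background removed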
Method: (§6) Using a six-dose MTT colorimetric assay [44, 66], all new synthetic compounds were tested for cytotoxicity against three cancer cell lines: MDA-MB-231 breast cancer cells, HT-29 colorectal adenocarcinoma cells, and U-937 renal cancer cells. […] These cell lines were supplied by ATCC (American Type Culture Collection) via the Holding company for biological products and vaccines (VACSERA, Cairo, Egypt). The reference control used was Methotrexate.
(§7) Using a six-dose MTT colorimetric assay [44, 66], allnew synthetic compounds were tested for cytotoxicity against three cancer cell lines: MDA-MB-231 breast cancer cells,HT-29 colorectal adenocarcinoma cells, and U-937 renal
(§8) The cell lines were supplied by ATCC (American Type Culture Collection). The reference control used was Methotrexate. The cytotoxic activities of the examined compounds were quantified by inoculating a 96-well tissue culture plate with 1 X 10^5 cells / mL (100 uL/well) and incubating it at 37°C for 24 hours to develop a complete monolayer sheet. After forming a confluent sheet of cells, the growth medium was decanted from 96-well microtiter plates, and the cell monolayer was washed twice with wash media. Two-fold dilutions of tested samples were made in RPMI medium with 2% serum (maintenance medium), and 0.1 mL of each dilution was tested in different wells, with three wells serving as controls and receiving only maintenance medium. Following that, the plate was incubated at 37°C and examined. Cells were investigated for any physical signs of toxicity, such as partial or complete monolayer loss, rounding, shrinkage, or cell granulation. MTT solution was prepared (5mg/ml in PBS) (BIO BASIC CANADA INC), and 20 uL MTT solution was added to each well. After 5 minutes on a shaking table at150 rpm to thoroughly mix the MTT into the media, it was incubated (37C, 5% CO2) for 4 hours to allow the MTT to be metabolized. Formazan (MTT metabolic product) was resuspended in 200 uL DMSO and shaken at 150 rpm for 5 minutes to thoroughly mix the formazan into the solvent. The optical density was measured at 560 nm, and the background was subtracted at 620 nm. Finally, the IC50 of the test compound in comparison to the reference was calculated using the GraphPad Prism software.

[3] = system: U-937 renal cancer cells; assay: MTT cytotoxicity assay, U-937; settings: MTT; for IC50: Homo sapiens, U-937, mean of three independent experiments ± SD, read-out: IC50 Value U-937; for Toxicity %: U937;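 for all read-outs here: Six-dose MTT colorimetric assay on cell monolayers, formazan absorbance read at 560 nm with 620 nm background removed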
Method: as §6, §7, §8

[4] = system: MDA-MB-231 breast cancer cells; assay: MTT cytotoxicity assay, MDA-MB-231; settings: MDA-MB-231, MTT; for IC50: mean of three independent experiments ± SD, read-out: IC50 Value MDA-MB-231
Method: as §1, §2, §3, §4, §5

[5] = MTT cytotoxicity assay, normal Vero cells; settings: African green monkey, normal Vero cells, MTT;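 note: monolayers exposed to two-fold dilutions in 2% serum medium, MTT added for 4 h, formazan in DMSO read at 560 nm minus 620 nm, controls given medium alone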
Method: as §6, §7, §8

[6] = system: normal Vero cells; assay: MTT cytotoxicity assay, normal Vero cells; settings: Vero, MTT;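 note: monolayers exposed to two-fold dilutions in 2% serum medium, MTT added for 4 h, formazan in DMSO read at 560 nm minus 620 nm, controls given medium alone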
Method: as §6, §7, §8

[7] = Homo sapiens, HT-29, HT29, 0.312 uM
[8] = Homo sapiens, HT-29, HT29, 0.625 uM
[9] = Homo sapiens, HT-29, HT29, 1.25 uM
[10] = Homo sapiens, HT-29, HT29, 2.5 uM
[11] = Homo sapiens, HT-29, HT29, 5 uM
[12] = Homo sapiens, HT-29, HT29, 10 uM

For Cn1c(SCC(=O)c2ccc([N+](=O)[O-])cc2)nc(=O)c(/N=C(/CBr)c2ccc([N+](=O)[O-])cc2)c1N [Compound 8, (E)-6-Amino-5-((2-bromo-1-(4-nitrophenyl)ethylidene)amino)-1-methyl-2-((2-(4-nitrophenyl)-2-oxoethyl)thio)pyrimidin-4(1H)-one], the Toxicity % ([1]; HT29, 0.312 uM) was 0.08613%, the Toxicity % ([1]; HT29, 0.625 uM) was 0.1292% and the Toxicity % ([1]; HT29, 1.25 uM) was 0.5599%. The Toxicity % ([1]; HT29, 2.5 uM) was 0.3876%, the Toxicity % ([1]; HT29, 5 uM) was 50.34% and the Toxicity % ([1]; HT29, 10 uM) was 77.91%. The viability at 0.312 µM [1, 7] was 99.9%, the viability at 0.625 µM [1, 8] was 99.9% and the viability at 1.25 µM [1, 9] was 99.4%. It also gave a viability at 2.5 µM [1, 10] of 99.6%, a viability at 5 µM [1, 11] of 49.7% and a viability at 10 µM [1, 12] of 22.1%. The IC50 ([1]; Homo sapiens, HT-29) was 6480 ± 80 nM, the viability at 0.312 µM [2] was 99.6% and the viability at 0.625 µM [2] was 99.3%. It also gave a viability at 1.25 µM [2] of 99.9%, a viability at 2.5 µM [2] of 99.8% and a viability at 5 µM [2] of 79.6%. It also gave a viability at 10 µM [2] of 27.6%, an IC50 [3] of 7770 ± 40 nM and a Toxicity % ([3]; 0.312 uM) of 0.3813%. The Toxicity % ([3]; 0.625 uM) was 0.6536%, the Toxicity % ([3]; 1.25 uM) was 0.05447% and the Toxicity % ([3]; 2.5 uM) was 0.2179%. For the same molecule, the Toxicity % ([3]; 5 uM) was 20.42%, the Toxicity % ([3]; 10 uM) was 72.39% and the IC50 ([4]; Homo sapiens) was 2310 ± 60 nM. The viability at 0.312 µM ([4]; Homo sapiens, 0.312 uM) was 97.6%, the viability at 0.625 µM ([4]; Homo sapiens, 0.625 uM) was 95.3% and the viability at 1.25 µM ([4]; Homo sapiens, 1.25 uM) was 83.8%. It also gave a viability at 2.5 µM ([4]; Homo sapiens, 2.5 uM) of 43.7%, a viability at 5 µM ([4]; Homo sapiens, 5 uM) of 35.9% and a viability at 10 µM ([4]; Homo sapiens, 10 uM) of 35.4%. The Toxicity % ([4]; 0.312 uM) was 2.394%, the Toxicity % ([4]; 0.625 uM) was 4.743% and the Toxicity % ([4]; 1.25 uM) was 16.18%. It also gave a Toxicity % ([4]; 2.5 uM) of 56.29%, a Toxicity % ([4]; 5 uM) of 64.1% and a Toxicity % ([4]; 10 uM) of 64.58%.

CN(Cc1cnc2nc(N)nc(N)c2n1)c1ccc(C(=O)N[C@@H](CCC(=O)O)C(=O)O)cc1 [Methotrexate, reference compound] gave a Toxicity % ([1]; HT29, 0.078 uM) of 0.5016%, a Toxicity % ([1]; HT29, 0.156 uM) of 0.912% and a Toxicity % ([1]; HT29, 0.312 uM) of 0.228%. For the same molecule, the Toxicity % ([1]; HT29, 0.625 uM) was 26.95%, the Toxicity % ([1]; HT29, 1.25 uM) was 66.94% and the Toxicity % ([1]; HT29, 2.5 uM) was 89.83%. The Toxicity % ([1]; HT29, 5 uM) was 97.45%, the Toxicity % ([1]; HT29, 10 uM) was 97.58% and the viability at 0.078 µM ([1]; Homo sapiens, HT-29, HT29, 0.078 uM) was 99.5%. It also gave a viability at 0.156 µM ([1]; Homo sapiens, HT-29, HT29, 0.156 uM) of 99.1%, a viability at 0.312 µM [1, 7] of 99.8% and a viability at 0.625 µM [1, 8] of 73.1%. The viability at 1.25 µM [1, 9] was 33.1%, the viability at 2.5 µM [1, 10] was 10.2% and the viability at 5 µM [1, 11] was 2.55%. For the same molecule, the viability at 10 µM [1, 12] was 2.42%, the IC50 ([1]; Homo sapiens, HT-29) was 990 ± 20 nM and the viability at 0.078 µM ([2]; 0.078 uM) was 99.9%. For the same molecule, the viability at 0.156 µM ([2]; 0.156 uM) was 99.9%, the viability at 0.312 µM [2] was 98.9% and the viability at 0.625 µM [2] was 96.9%. It also gave a viability at 1.25 µM [2] of 47.5%, a viability at 2.5 µM [2] of 31.5% and a viability at 5 µM [2] of 8.38%. It also gave a viability at 10 µM [2] of 7.63%, an IC50 [3] of 1220 ± 20 nM and a Toxicity % ([3]; 0.078 uM) of 0.1004%. It also gave a Toxicity % ([3]; 0.156 uM) of 0.0502%, a Toxicity % ([3]; 0.312 uM) of 1.104% and a Toxicity % ([3]; 0.625 uM) of 3.112%. For the same molecule, the Toxicity % ([3]; 1.25 uM) was 52.46%, the Toxicity % ([3]; 2.5 uM) was 68.47% and the Toxicity % ([3]; 5 uM) was 91.62%. For the same molecule, the Toxicity % ([3]; 10 uM) was 92.37%, the IC50 ([5]; mean of three independent experiments ± SD, read-out: In Vitro Cytotoxicity against Normal Cells IC50 Value, Vero Cells) was 10200 ± 300 nM and the viability at 0.312 µM ([5]; Vero, 0.312 uM) was 99.7%. For the same molecule, the viability at 0.625 µM ([5]; Vero, 0.625 uM) was 100%, the viability at 1.25 µM ([5]; Vero, 1.25 uM) was 99.3% and the viability at 2.5 µM ([5]; Vero, 2.5 uM) was 97.3%. The viability at 5 µM ([5]; Vero, 5 uM) was 87.6%, the viability at 10 µM ([5]; Vero, 10 uM) was 50.2% and the Toxicity % ([6]; 0.312 uM) was 0.3046%. The Toxicity % ([6]; 0.625 uM) was 0.04352%, the Toxicity % ([6]; 1.25 uM) was 0.7398% and the Toxicity % ([6]; 2.5 uM) was 2.698%. It also gave a Toxicity % ([6]; 5 uM) of 12.45%, a Toxicity % ([6]; 10 uM) of 49.78% and an IC50 ([4]; Homo sapiens) of 2790 ± 60 nM. The viability at 0.078 µM ([4]; Homo sapiens, 0.078 uM) was 99.9%, the viability at 0.156 µM ([4]; Homo sapiens, 0.156 uM) was 99.7% and the viability at 0.312 µM ([4]; Homo sapiens, 0.312 uM) was 99.6%. For the same molecule, the viability at 0.625 µM ([4]; Homo sapiens, 0.625 uM) was 99.8%, the viability at 1.25 µM ([4]; Homo sapiens, 1.25 uM) was 81.5% and the viability at 2.5 µM ([4]; Homo sapiens, 2.5 uM) was 42.4%. The viability at 5 µM ([4]; Homo sapiens, 5 uM) was 19.5%, the viability at 10 µM ([4]; Homo sapiens, 10 uM) was 11.8% and the Toxicity % ([4]; 0.078 uM) was 0.0883%. It also gave a Toxicity % ([4]; 0.156 uM) of 0.2649%, a Toxicity % ([4]; 0.312 uM) of 0.3532% and a Toxicity % ([4]; 0.625 uM) of 0.2208%. It also gave a Toxicity % ([4]; 1.25 uM) of 18.45%, a Toxicity % ([4]; 2.5 uM) of 57.62% and a Toxicity % ([4]; 5 uM) of 80.53%. The Toxicity % ([4]; 10 uM) was 88.17%.
